Measured values published in PubChem BioAssay (NCI).
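In this assay, cells in 96-well plates receive the compound at five concentrations for 48 hours. Endpoints are linearly interpolated between the surrounding concentrations. GI50 marks 50% less growth. TGI denotes the concentration required for complete inhibition of growth.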

Assays:
Assay in all cases: NCI-60 cell line screen, 48 h
[1] = test system: TK-10 renal
[2] = test system: SK-OV-3 ovarian
[3] = test system: OVCAR-3 ovarian
[4] = test system: HCT-116 colon
[5] = test system: COLO 205 colon
[6] = test system: A498 renal
[7] = test system: NCI-H23 lung
[8] = test system: OVCAR-5 ovarian
[9] = test system: UACC-257 melanoma
[10] = test system: HOP-92 NSCLC
[11] = test system: LOX IMVI melanoma
[12] = test system: SF-539 CNS
[13] = test system: SNB-75 CNS
[14] = test system: UO-31 renal
[15] = test system: CCRF-CEM leukemia
[16] = test system: NCI-H460 lung
[17] = test system: SF-295 CNS
[18] = test system: SK-MEL-2 melanoma
[19] = test system: BT-549 breast
[20] = test system: SK-MEL-28 melanoma
[21] = test system: T-47D breast
[22] = test system: M14 melanoma
[23] = test system: HS 578T breast
[24] = test system: ACHN renal
[25] = test system: PC-3 prostate
[26] = test system: SF-268 CNS
[27] = test system: UACC-62 melanoma
[28] = test system: RPMI-8226 leukemia
[29] = test system: HL-60(TB) leukemia
[30] = test system: SR leukemia
[31] = test system: IGROV1 ovarian
[32] = test system: HCT-15 colon
[33] = test system: HCC-2998 colon
[34] = test system: KM12 colon
[35] = test system: MDA-MB-435
[36] = test system: OVCAR-4 ovarian
[37] = test system: MOLT-4 leukemia
[38] = test system: U251 CNS
[39] = test system: NCI/ADR-RES ovarian
[40] = test system: MDA-MB-231 breast
[41] = test system: MCF7 breast
[42] = test system: HT29 colon
[43] = test system: NCI-H522 lung
[44] = test system: NCI-H226 lung
[45] = test system: MALME-3M melanoma
[46] = test system: OVCAR-8 ovarian
[47] = test system: RXF 393 renal
[48] = test system: SN12C renal
[49] = test system: SNB-19 CNS
[50] = test system: SK-MEL-5 melanoma
[51] = test system: A549 NSCLC
[52] = test system: K-562 leukemia
[53] = test system: HOP-62 NSCLC
[54] = test system: SW-620 colon
[55] = test system: 786-0 renal
[56] = test system: EKVX NSCLC

Structure (SMILES): CC12O[C@H](C[C@@H](OC(=O)CCC(=O)O)[C@H]1O)n1c3ccccc3c3c4c(c5c6ccccc6n2c5c31)C(=O)NC4=O
- GI50 [1]: 0.411 µM
- TGI [1]: 10.9 µM
- GI50 [2]: 0.323 µM
- TGI [2]: 3.44 µM
- GI50 [3]: 1.32 µM
- TGI [3]: 14 µM
- GI50 [4]: 1.5 µM
- TGI [4]: 9.8 µM
- GI50 [5]: 0.902 µM
- TGI [5]: 5.26 µM
- GI50 [6]: 0.168 µM
- TGI [6]: 1.15 µM
- GI50 [7]: 1.13 µM
- TGI [7]: 20.3 µM
- GI50 [8]: 7.87 µM
- TGI [8]: > 50 µM
- GI50 [9]: 1.52 µM
- TGI [9]: 10.6 µM
- GI50 [10]: 0.738 µM
- TGI [10]: 4.77 µM
- GI50 [11]: 1.47 µM
- TGI [11]: 7.88 µM
- GI50 [12]: 1.22 µM
- TGI [12]: 3.97 µM
- GI50 [13]: 1.07 µM
- TGI [13]: 7.41 µM
- GI50 [14]: 0.201 µM
- TGI [14]: 3.55 µM
- GI50 [15]: 1.57 µM
- TGI [15]: 13.4 µM
- GI50 [16]: 1.46 µM
- TGI [16]: 12.2 µM
- GI50 [17]: 1.5 µM
- TGI [17]: 7.6 µM
- GI50 [18]: 0.464 µM
- TGI [18]: 16.5 µM
- GI50 [19]: 1.02 µM
- TGI [19]: 7.68 µM
- GI50 [20]: 1.51 µM
- TGI [20]: 19.8 µM
- GI50 [21]: 0.83 µM
- TGI [21]: > 50 µM
- GI50 [22]: 0.239 µM
- TGI [22]: 6.54 µM
- GI50 [23]: 2.43 µM
- TGI [23]: 28.4 µM
- GI50 [24]: 0.727 µM
- TGI [24]: > 50 µM
- GI50 [25]: 3.44 µM
- TGI [25]: > 50 µM
- GI50 [26]: 3.21 µM
- TGI [26]: 23.9 µM
- GI50 [27]: 0.585 µM
- TGI [27]: 7.2 µM
- GI50 [28]: 5.98 µM
- TGI [28]: 24.3 µM
- GI50 [29]: 9.62 µM
- TGI [29]: 42.4 µM
- GI50 [30]: 0.505 µM
- TGI [30]: 10.5 µM
- GI50 [31]: 0.664 µM
- TGI [31]: 38.8 µM
- GI50 [32]: 0.767 µM
- TGI [32]: 16.4 µM
- GI50 [33]: 5.64 µM
- TGI [33]: 15.1 µM
- GI50 [34]: 0.285 µM
- TGI [34]: 11.5 µM
- GI50 [35]: 0.708 µM
- TGI [35]: 7.08 µM
- GI50 [36]: 5.77 µM
- TGI [36]: > 50 µM
- GI50 [37]: 0.949 µM
- TGI [37]: 18 µM
- GI50 [38]: 5.71 µM
- TGI [38]: 17.1 µM
- GI50 [39]: 6.24 µM
- TGI [39]: 40.8 µM
- GI50 [40]: 6.3 µM
- TGI [40]: 16.2 µM
- GI50 [41]: 1.25 µM
- TGI [41]: 10.9 µM
- GI50 [42]: 1.45 µM
- TGI [42]: 17.7 µM
- GI50 [43]: 0.602 µM
- TGI [43]: 6.92 µM
- GI50 [44]: 0.738 µM
- TGI [44]: 9.71 µM
- GI50 [45]: 0.2 µM
- TGI [45]: 2.36 µM
- GI50 [46]: 2.65 µM
- TGI [46]: > 50 µM
- GI50 [47]: 0.598 µM
- TGI [47]: 4.16 µM
- GI50 [48]: 2.47 µM
- TGI [48]: 24.5 µM
- GI50 [49]: 3.62 µM
- TGI [49]: 38.8 µM
- GI50 [50]: 1.41 µM
- TGI [50]: 6.69 µM
- GI50 [51]: 1.55 µM
- TGI [51]: > 50 µM
- GI50 [52]: 5.07 µM
- TGI [52]: > 50 µM
- GI50 [53]: 0.834 µM
- TGI [53]: 10.7 µM
- GI50 [54]: 1.43 µM
- TGI [54]: 13.4 µM
- GI50 [55]: 2.14 µM
- TGI [55]: 11.3 µM
- GI50 [56]: 7.28 µM
- TGI [56]: > 50 µM
